Test results taken from patent US5540861A (priority 1994, dated 1996).

What was measured:
in vivo = conditions: po
[1] = in vivo

For `CCCCc1cc([N+](=O)[O-])c(O)c([N+](=O)[O-])c1` [DNBP (C4), 2,6dinitro-4-butylphenol], the LD50 (in vivo) was 30 mg/kg.

`CCCCCCCCCc1cc([N+](=O)[O-])c(O)c([N+](=O)[O-])c1` [DNNP (C9), 2,6dinitro-4-nonylphenol] showed an LD50 (in vivo) of 50 mg/kg.

For `CCO` [Ethanol], the “ORAL LD50” value [1] was 7,080 mg/kg.

In the case of `[Cl-].[Na+]` [Sodium Chloride], the “ORAL LD50” value [1] is reported as 3,000 mg/kg.
